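Values below derive from 48-hour exposures of cells grown in 96-well plates, with endpoints linearly interpolated between the two concentrations bracketing the appropriate inhibition level. Here, GI50 denotes the concentration required for 50% inhibition of growth.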 The source made the active and inactive calls. No stated cut-off is given here; in the data, active = GI50 up to about 1.1 µM and inactive = higher.
Tests used:
Test in all cases: DTP human tumour cell line panel, 48 h
786-0 = test system: 786-0
A498 = test system: A498
A549 = test system: A549
ACHN = test system: ACHN
BT-549 = test system: BT-549
CAKI-1 = test system: CAKI-1
CCRF-CEM = test system: CCRF-CEM
COLO 205 = test system: COLO 205
DU-145 = test system: DU-145
EKVX = test system: EKVX
HCC 2998 = test system: HCC 2998
HCT-116 = test system: HCT-116
HCT-15 = test system: HCT-15
HL-60 = test system: HL-60
HOP-62 = test system: HOP-62
HOP-92 = test system: HOP-92
HT-29 = test system: HT-29
Hs-578T = test system: Hs-578T
IGROV-1 = test system: IGROV-1
K562 = test system: K562
KM12 = test system: KM12
LOX IMVI = test system: LOX IMVI
M14 = test system: M14
MCF7 = test system: MCF7
MDA-MB-231 = test system: MDA-MB-231
MDA-MB-435 = test system: MDA-MB-435
MDA-N = test system: MDA-N
MOLT-4 = test system: MOLT-4
Malme-3M = test system: Malme-3M
NCI-H226 = test system: NCI-H226
NCI-H23 = test system: NCI-H23
NCI-H460 = test system: NCI-H460
NCI-H522 = test system: NCI-H522
NCI/ADR-RES = test system: NCI/ADR-RES
OVCAR-3 = test system: OVCAR-3
OVCAR-4 = test system: OVCAR-4
OVCAR-5 = test system: OVCAR-5
OVCAR-8 = test system: OVCAR-8
PC-3 = test system: PC-3
RPMI-8226 = test system: RPMI-8226
RXF 393 = test system: RXF 393
SF-268 = test system: SF-268
SF-295 = test system: SF-295
SF-539 = test system: SF-539
SK-MEL-28 = test system: SK-MEL-28
SK-MEL-2 = test system: SK-MEL-2
SK-MEL-5 = test system: SK-MEL-5
SK-OV-3 = test system: SK-OV-3
SN12C = test system: SN12C
SNB-19 = test system: SNB-19
SNB-75 = test system: SNB-75
SR = test system: SR
SW-620 = test system: SW-620
T47D = test system: T47D
TK-10 = test system: TK-10
U-251 = test system: U-251
UACC-257 = test system: UACC-257
UACC-62 = test system: UACC-62
UO-31 = test system: UO-31

C/C(=N\NC(=S)N1CCN(c2ccccn2)CC1)c1cccc2cccnc12
GI50 (786-0): 4.29 µM (inactive)
GI50 (A498): 12 µM (inactive)
GI50 (A549): 5.25 µM (inactive)
GI50 (ACHN): 4.01 µM (inactive)
GI50 (BT-549): 14.3 µM (inactive)
GI50 (CAKI-1): 6.32 µM (inactive)
GI50 (CCRF-CEM): 2.18 µM (inactive)
GI50 (COLO 205): 3.02 µM (inactive)
GI50 (DU-145): 3.56 µM (inactive)
GI50 (EKVX): 3.59 µM (inactive)
GI50 (HCC 2998): 5.47 µM (inactive)
GI50 (HCT-116): 2.39 µM (inactive)
GI50 (HCT-15): 3.68 µM
GI50 (HL-60): 0.828 µM (active)
GI50 (HOP-62): 6.05 µM (inactive)
GI50 (HOP-92): 3.98 µM (inactive)
GI50 (HT-29): 3.61 µM (inactive)
GI50 (Hs-578T): 9.08 µM (inactive)
GI50 (IGROV-1): 5.79 µM (inactive)
GI50 (K562): 2.46 µM (inactive)
GI50 (KM12): 3.9 µM (inactive)
GI50 (LOX IMVI): 3.59 µM (inactive)
GI50 (M14): 5.15 µM (inactive)
GI50 (MCF7): 3.6 µM (inactive)
GI50 (MDA-MB-231): 4.42 µM (inactive)
GI50 (MDA-MB-435): 6.31 µM (inactive)
GI50 (MDA-N): 4.71 µM (inactive)
GI50 (MOLT-4): 3.21 µM (inactive)
GI50 (Malme-3M): 4.76 µM (inactive)
GI50 (NCI-H226): 5.77 µM (inactive)
GI50 (NCI-H23): 11.5 µM (inactive)
GI50 (NCI-H460): 3.51 µM (inactive)
GI50 (NCI-H522): 2.28 µM (inactive)
GI50 (NCI/ADR-RES): 3.35 µM (inactive)
GI50 (OVCAR-3): 3.44 µM (inactive)
GI50 (OVCAR-4): 4.03 µM (inactive)
GI50 (OVCAR-5): 4.9 µM (inactive)
GI50 (OVCAR-8): 3.43 µM (inactive)
GI50 (PC-3): 3.67 µM (inactive)
GI50 (RPMI-8226): 2.29 µM (inactive)
GI50 (RXF 393): 3.33 µM (inactive)
GI50 (SF-268): 5.08 µM (inactive)
GI50 (SF-295): 3.37 µM (inactive)
GI50 (SF-539): 4.11 µM (inactive)
GI50 (SK-MEL-28): 6.58 µM (inactive)
GI50 (SK-MEL-2): 2.51 µM (inactive)
GI50 (SK-MEL-5): 2.46 µM (inactive)
GI50 (SK-OV-3): 11.4 µM (inactive)
GI50 (SN12C): 4.07 µM (inactive)
GI50 (SNB-19): 5.78 µM (inactive)
GI50 (SNB-75): 13.1 µM (inactive)
GI50 (SR): 0.859 µM (active)
GI50 (SW-620): 4.33 µM (inactive)
GI50 (T47D): 3.68 µM (inactive)
GI50 (TK-10): 6.31 µM (inactive)
GI50 (U-251): 4.12 µM (inactive)
GI50 (UACC-257): 2.84 µM (inactive)
GI50 (UACC-62): 3.53 µM (inactive)
GI50 (UO-31): 4.36 µM (inactive)

Cn1ccnc1Sc1ccc(/C=N/c2ccc3nc(SCC(=O)NC4CCCCC4)sc3c2)cc1[N+](=O)[O-]
GI50 (786-0): 11.6 µM (inactive)
GI50 (A498): 14.6 µM (inactive)
GI50 (A549): > 100 µM (inactive)
GI50 (ACHN): 16.6 µM (inactive)
GI50 (BT-549): 14.1 µM (inactive)
GI50 (CAKI-1): > 100 µM (inactive)
GI50 (CCRF-CEM): > 100 µM (inactive)
GI50 (COLO 205): > 100 µM (inactive)
GI50 (DU-145): > 100 µM (inactive)
GI50 (EKVX): > 100 µM (inactive)
GI50 (HCC 2998): > 100 µM (inactive)
GI50 (HCT-116): 25.9 µM (inactive)
GI50 (HCT-15): > 100 µM
GI50 (HL-60): > 100 µM (inactive)
GI50 (HOP-62): 28.4 µM (inactive)
GI50 (HOP-92): 12.1 µM (inactive)
GI50 (HT-29): > 100 µM (inactive)
GI50 (Hs-578T): 18.6 µM (inactive)
GI50 (IGROV-1): 37.1 µM (inactive)
GI50 (K562): > 100 µM (inactive)
GI50 (KM12): > 100 µM (inactive)
GI50 (LOX IMVI): 95.1 µM (inactive)
GI50 (M14): 38.2 µM (inactive)
GI50 (MCF7): > 100 µM (inactive)
GI50 (MDA-MB-231): 31.4 µM (inactive)
GI50 (MDA-MB-435): > 100 µM (inactive)
GI50 (MDA-N): > 100 µM (inactive)
GI50 (MOLT-4): > 100 µM (inactive)
GI50 (Malme-3M): > 100 µM (inactive)
GI50 (NCI-H226): > 100 µM (inactive)
GI50 (NCI-H23): 37.5 µM (inactive)
GI50 (NCI-H460): > 100 µM (inactive)
GI50 (NCI-H522): 65.9 µM (inactive)
GI50 (NCI/ADR-RES): > 100 µM (inactive)
GI50 (OVCAR-3): 91.6 µM (inactive)
GI50 (OVCAR-4): > 100 µM (inactive)
GI50 (OVCAR-5): > 100 µM (inactive)
GI50 (OVCAR-8): > 100 µM (inactive)
GI50 (PC-3): > 100 µM (inactive)
GI50 (RPMI-8226): > 100 µM (inactive)
GI50 (RXF 393): 7.45 µM (inactive)
GI50 (SF-268): 22.6 µM (inactive)
GI50 (SF-295): 13.2 µM (inactive)
GI50 (SF-539): 5.68 µM (inactive)
GI50 (SK-MEL-28): > 100 µM (inactive)
GI50 (SK-MEL-2): 18.6 µM (inactive)
GI50 (SK-MEL-5): > 100 µM (inactive)
GI50 (SK-OV-3): 20.2 µM (inactive)
GI50 (SN12C): > 100 µM (inactive)
GI50 (SNB-19): 13.7 µM (inactive)
GI50 (SNB-75): 2.7 µM (inactive)
GI50 (SR): > 100 µM (inactive)
GI50 (SW-620): > 100 µM (inactive)
GI50 (T47D): > 100 µM (inactive)
GI50 (TK-10): 15.6 µM (inactive)
GI50 (U-251): 8.09 µM (inactive)
GI50 (UACC-257): > 100 µM (inactive)
GI50 (UACC-62): 19.5 µM (inactive)
GI50 (UO-31): > 100 µM (inactive)
